Reference: US5877320A, “Process for the preparation of organotin compounds useful as cytotoxic agents” (priority 1995, dated 1999)

Assays:
[1] = test system: H226; assay: In-vitro cytotoxicity [ID50] against H226 (nonsmall cell lung cancer); type: cell-based, human; conditions: NCI-USA protocol
Text: (§1) The in-vitro cytotoxicity determined in terms of inhibition dose [ID50 ] of compounds having the formulae 8-11 prepared by the process of the present invention against […] different human cancer cell lines namely MCF7, EVSAT (Breast Cancer), WIDR (Colon Cancer), IGROV (Ovarian Cancer), M19MEL (Melanoma), A498 (Renal Cancer) and H226 (Nonsmall cell lung Cancer) have been measured following NCI-USA protocol [M. R. Boyd, "Status of the NCI preclinical antitumour drug discovery screen. Principles & practice of oncology 3, pp. 1-12 (1989)] alongwith the latest ID50 values of inorganic cancer drugs are presented in Table 1.

[2] = test system: EVSAT; assay: In-vitro cytotoxicity [ID50] against EVSAT (breast cancer); type: cell-based, human; conditions: NCI-USA protocol
Text: as §1

[3] = test system: M19MEL; assay: In-vitro cytotoxicity [ID50] against M19MEL (melanoma); type: cell-based, human; conditions: NCI-USA protocol
Text: as §1

[4] = test system: IGROV; assay: In-vitro cytotoxicity [ID50] against IGROV (ovarian cancer); type: cell-based, human; conditions: NCI-USA protocol
Text: as §1

[5] = test system: A498; assay: In-vitro cytotoxicity [ID50] against A498 (renal cancer); type: cell-based, human; conditions: NCI-USA protocol
Text: as §1

[6] = test system: WIDR; assay: In-vitro cytotoxicity [ID50] against WIDR (colon cancer); type: cell-based, human; conditions: NCI-USA protocol
Text: as §1

[7] = test system: MCF7; assay: In-vitro cytotoxicity [ID50] against MCF7 (breast cancer); type: cell-based, human; conditions: NCI-USA protocol
Text: as §1

[8] = test system: P388 lymphocytic leukemia; conditions: in words; literature; cited from earlier work

| Compound | Anti-tumour activity [ID50] [1] [µg/mL] | Anti-tumour activity [ID50] [2] [µg/mL] | Anti-tumour activity [ID50] [3] [µg/mL] | Anti-tumour activity [ID50] [4] [µg/mL] | Anti-tumour activity [ID50] [5] [µg/mL] | Anti-tumour activity [ID50] [6] [µg/mL] | Anti-tumour activity [ID50] [7] [µg/mL] | activity against P388 in mice [8] |
| --- | --- | --- | --- | --- | --- | --- | --- | --- |
| N.N.O=C([O-])C1(C(=O)[O-])CCC1.[Pt+2] [Carboplatin, reference compound] | 25 | 4.5 | 5.5 | 2.4 | 18 | 3.5 | 10.5 | – |
| N.N.[Cl][Pt][Cl] [cis-platin, reference compound] | 3.158 | 0.92 | 0.78 | 0.227 | 1.2 | 1.55 | 1.4 | – |
| [Cl][Sn]([Cl])([c]1ccccc1)[CH]1CCCCC1 [cyclohexyl-(phenyl)tindichloride] | – | – | – | – | – | – | – | inhibition of P-388 in mice |
| bipyridine complex of dibenzyltindichloride [compound 11] | 0.35 | 0.15 | 0.32 | 0.08 | 0.16 | 0.8 | 0.12 | – |
| bis(imidazole) complex of dibenzyltindichloride [compound 10] | 1.3 | 0.4 | 1.5 | 3.2 | 1 | 3.2 | 0.7 | – |
| bis(indole) complex of dibenzyltindichloride [compound 8] | 0.2 | 0.15 | 0.4 | 0.11 | 0.2 | 0.85 | 0.15 | – |
| bis(thiophene) complex of dibenzyltindichloride [compound 9] | 0.4 | 0.13 | 0.25 | 0.05 | 0.11 | 0.55 | 0.068 | – |
| dibenzyl(phenanthroline)-tindichloride | – | – | – | – | – | – | – | inactive |
